Measurements from US20200030368A1, “A POLYMER NETWORK, METHOD FOR PRODUCTION, AND USES THEREOF” (priority 2016, published 2020).

What was measured:
S. aureus = test: Resistance study by serial passaging at sub-MIC; assay type: cell-based; details: 14 passages at sub-MIC (MIC/2)
Method: (§1) Two control antibiotics norfloxacin and colistin were chosen for S. aureus and for A. baumannii, respectively. In case of norfloxacin and colistin also, the initial MIC values were determined against respective bacteria. After the initial MIC experiment, serial passaging was initiated by transferring bacterial suspension grown at the sub-MIC of the polymer/antibiotics and was subjected to another MIC assay. […] The process was repeated for 14 passages for both S. aureus and A. baumannii respectively. The fold increase in MIC for test polymer to the control antibiotics was plotted against the number of passages to determine the propensity of bacterial resistance development.

A. baumannii = test: Resistance study by serial passaging at sub-MIC; assay type: cell-based; details: 14 passages at sub-MIC (MIC/2)
Method: as §1

Compound | change in MIC on serial passaging (S. aureus) | change in MIC on serial passaging (A. baumannii)
CCn1cc(C(=O)O)c(=O)c2cc(F)c(N3CCNCC3)cc21 [norfloxacin] | gradual increase in MIC | 
colistin |  | gradual increase in MIC
